Key:
Format in all cases: cell-based
[1] = test system: gastric cancer cell MKN-7; test: Cancer growth inhibitory activity, gastric cancer cell MKN-7; settings: for Cancer growth inhibitory activity (average log GI50): gastric cancer cell MKN-7
lung cancer cell DMS273 = test: Cancer growth inhibitory activity, lung cancer cell DMS273; settings: for Cancer growth inhibitory activity (average log GI50): lung cancer cell DMS273; for cancer growth inhibitory activity relative to oxaliplatin: lung cancer cells, higher than oxaliplatin
colon cancer cell HT-29 = test: Cancer growth inhibitory activity, colon cancer cell HT-29; settings: for Cancer growth inhibitory activity (average log GI50): colon cancer cell HT-29; for cancer growth inhibitory activity relative to oxaliplatin: colon cancer cells, stronger than oxaliplatin
[2] = test system: renal cancer cell RXF631L; test: Cancer growth inhibitory activity, renal cancer cell RXF631L; settings: for Cancer growth inhibitory activity (average log GI50): renal cancer cell RXF631L
39 kinds of cancer cells = test: In vitro cancer growth inhibitory activity, sulforhodamine B, panel of 39 cancer cell lines; settings: average over 39 kinds of cancer cells, 2 days culture with sample
Protocol: The in vitro cancer growth inhibitory activity was assessed according to the method described in Jpn J Cancer Chemother, 24, 129 (1997) and Cancer Chemothr. Pharmacol., 52 Suppl 1, S74-79 (2003). Namely, a total of 39 different kinds of cancer cells at logarithmic growth phase were separately seeded into wells of 96 well plates, and incubated at 37° C. for 1 day. The cancer cells used were 5 kinds of breast cancer cells (HBC-4, BSY-1, HBC-5, MCF-7, MDA-MB-231), 6 kinds of glioma cancer cells (U251, SF-268, SF-295, SF-539, SNB-75, SNB-78), 5 kinds of colon cancer cells (HCC2998, KM-12, HT-29, HCT-15, HCT-116), 7 kinds of lung cancer cells (NCI-H23, NCL-H226, NCL-H522, NCL-H460, A549, DMS273, DMS114), 1 kind of melanoma cell (LOX-IMVI), 5 kinds of ovarian cancer cells (OVCAR-3, OVCAR-4, OVCAR-5, OVCAR-8, SK-OV-3), 2 kinds of renal cancer cells (RXF-631L, ACHN), 6 kinds of gastric cancer cells (St-4, MKN1, MKN7, MKN28, MKN45, MKN74), and 2 kinds of prostate cancer cells (DU-145, PC-3). Each sample solution was added to the wells on the following day, and culture was continued at 37° C. for another 2 days. Then, the degree of cell growth was determined by the colorimetric measurement using sulforhodamine B. The cancer growth inhibitory activity was assessed based on the average log GI50 (GI50 indicates the concentration required to inhibit 50% of cell growth) against 39 kinds of cancer cells.

Cancer growth inhibitory activity (average log GI50) [1] | Cancer growth inhibitory activity (average log GI50) (lung cancer cell DMS273) | Cancer growth inhibitory activity (average log GI50) (colon cancer cell HT-29) | Cancer growth inhibitory activity (average log GI50) [2] | Cancer growth inhibitory activity (average log GI50) (39 kinds of cancer cells) | Compound | cancer growth inhibitory activity relative to oxaliplatin ([1]; gastric cancer cells, stronger than oxaliplatin) | cancer growth inhibitory activity relative to oxaliplatin (lung cancer cell DMS273) | cancer growth inhibitory activity relative to oxaliplatin (colon cancer cell HT-29) | cancer growth inhibitory activity relative to oxaliplatin ([2]; renal cancer cells, stronger than oxaliplatin)
−6.02 | −7.46 | −5.96 | −6.03 | – | N[C@@H]1CCCC[C@H]1N.N[C@@H]1CCCC[C@H]1N.O.O.O.O.O=C([O-])[C@@H](O)[C@H](O)C(=O)[O-].O=[N+]([O-])[O-].[Pt+2].[Pt+2] (relative stereo) [[{Pt(R,R-dach)}2(μ-D-tartH)]NO3•4H2O, D-tartrate-bridged dinuclear 1R,2R-1,2-trans-cyclohexanediamine platinum(II) complex nitrate] | about 10 times | about 20 times | about 10 times | about 100 times
−4.98 | −7.31 | −7.00 | −4.92 | −5.99 | L-tartrate-bridged dinuclear 1R,2R-1,2-trans-cyclohexanediamine platinum(II) complex nitrate [[{Pt(R,R-dach)}2(μ-L-tartH)]NO3•4H2O] | – | about 20 times | about 100 times | –
– | – | – | – | −5.36 | L-tartrate-bridged dinuclear 1S,2S-1,2-trans-cyclohexanediamine platinum(II) complex nitrate [[{Pt(S,S-dach)}2(μ-L-tartH)]NO3•4H2O] | – | – | – | –

Compound | Cancer growth inhibitory activity (average log GI50) [1] | Cancer growth inhibitory activity (average log GI50) (lung cancer cell DMS273) | Cancer growth inhibitory activity (average log GI50) (colon cancer cell HT-29) | Cancer growth inhibitory activity (average log GI50) [2] | Cancer growth inhibitory activity (average log GI50) (39 kinds of cancer cells) | cancer growth inhibitory activity relative to oxaliplatin ([1]; gastric cancer cells, stronger than oxaliplatin) | cancer growth inhibitory activity relative to oxaliplatin (lung cancer cell DMS273) | cancer growth inhibitory activity relative to oxaliplatin (colon cancer cell HT-29) | cancer growth inhibitory activity relative to oxaliplatin ([2]; renal cancer cells, stronger than oxaliplatin)
O=C1[O][Pt-2]2([NH2+]C3CCCC[C@H]3[NH2+]2)[O]C1=O (stereo partly drawn) [Oxaliplatin, oxalato(1R,2R-1,2-cyclohexanediamine)platinum(II), reference compound] | −4.68 | −6.06 | −4.91 | −4.13 | −5.03 | – | – | – | –

Reference: patent US7943793B2, “Optically active organic acidate-bridged dinuclear platinum(II) complex” (Osaka University, priority 2007, dated 2011)
